# Assay results: US20180243421A1, “IMMUNOSTIMULATING AGENT” (AJINOMOTO CO., INC., priority 2015, published 2018)
# Tested on: anti-OVA-specific IgG1 subclass antibody
# Assay: Adjuvant activity: anti-OVA-specific IgG1 subclass antibody in serum after secondary immunization (Examples 1, 5, 7, 8; ELISA absorbance)
# Assay type: in vivo, BALB/c mice
# Conditions: Example 5
# Method: Two weeks from the secondary immunization, the whole blood was extracted under anesthesia, and the obtained serum sample was measured for anti-OVA-specific IgG1 subclass antibody.
# A method for measurement of the anti-OVA-specific IgG1 subclass antibody in Example 1, and the following Examples 5, 7 and 8 is as follows.
# Measurement Method of anti-OVA-specific IgG1 Subclass Antibody
# To a 96 well plate was added 5 μg/ml OVA at 100 μl/well, and the mixture was incubated at 4° C. overnight. After incubation, the mixture was washed three times with 200 μl of PBS-T (PBS+0.05%(v/v) Tween 20) per well, and blocked with 100 μl of 5% FCS/PBS solution per well at room temperature for 1 to 2 hr. Thereafter, the mixture was washed three times with PBS-T (200 μl/well), a diluted serum sample (100 μl/well) or the same amount of 5% FCS/PBS solution as a control was added, and the mixture was incubated at 37° C. for 1 hr. Thereafter, the mixture was washed five times with PBS-T (200 μl/well), a diluted biotinylated anti-mouse IgG1 antibody (100 μl/well) was added, and the mixture was incubated at 37° C. for 45 min. Thereafter, the mixture was washed five times with PBS-T (200 μl/well), a diluted anti-biotin-HRP antibody was added (100 μl/well), and the mixture was incubated at 37° C. for another 30 min. Thereafter, the mixture was washed five times with PBS-T (200 μl/well), TMB substrate solution was added (100 μl/well), and the mixture was incubated at room temperature for 10 to 15 min. Thereafter, a reaction quenching liquid (2N sulfuric acid solution) was added (50 μl/well) to discontinue a color developing reaction, and the absorbance (OD Value=450 nm) was measured by a microplate reader.
row,Compound,adjuvant activity (IgG1) compared with Alum
1,"CCCCCCCCCCCCCCCC(=O)N[C@@H](CCCNC(=N)N)C(=O)OC.Cl [SZ63, N^2-hexadecanoyl-L-arginine methyl ester hydrochloride]",equivalent to or not less than that of Alum
2,"CCCCCCCCCCCCCCCCCC(=O)N[C@@H](CCC(N)=O)C(=O)OC(C)(C)C [SZ64, N^2-octadecanoyl-L-glutamine tert-butyl ester]",equivalent to or not less than that of Alum

# Same assay, conditions: Example 5; same manner as Example 1
row,Compound,anti-OVA-specific IgG1 subclass antibody production as compared to the OVA single administration group
1,"CCCCCCCCCCCCCCCC(=O)N[C@@H](CCCNC(=N)N)C(=O)OC.Cl [SZ63, N^2-hexadecanoyl-L-arginine methyl ester hydrochloride]",significantly increased
2,"CCCCCCCCCCCCCCCCCC(=O)N[C@@H](CCC(N)=O)C(=O)OC(C)(C)C [SZ64, N^2-octadecanoyl-L-glutamine tert-butyl ester]",significantly increased

# Same assay, conditions: Example 7
row,Compound,adjuvant activity (IgG1) compared with Alum
1,"CCCCCCCCCCCCCCCCCCCCCC(=O)NCC(=O)OC [SZ69, N-docosanoyl glycine methyl ester]",equivalent to or not less than that of Alum
2,"CCCCCCCCCCCCCCCCCCCCCC(=O)N[C@@H](CCC(=O)O)C(=O)OC [SZ72, N-docosanoyl-L-glutamic acid 1-methyl ester]",equivalent to or not less than that of Alum
3,"CCCCCCCCCCCCCCCCCCCCCC(=O)N[C@@H](CCCCN)C(=O)OC.O=C(O)C(F)(F)F [SZ73, N^2-docosanoyl-L-lysine methyl ester trifluoroacetic acid salt]",equivalent to or not less than that of Alum
4,"CCCCCCCCCCCCCCCCCCCCCC(=O)N[C@H](C(=O)OC)[C@@H](C)CC [SZ76, N-docosanoyl-L-isoleucine methyl ester]",equivalent to or not less than that of Alum
5,"CCCCCCCCCCCCCCCCCCCCCC(=O)N[C@H](C(=O)OC)C(C)C [SZ77, N-docosanoyl-L-valine methyl ester]",equivalent to or not less than that of Alum

# Same assay, conditions: Example 7; same manner as Example 1, plus Addavax group
row,Compound,anti-OVA-specific IgG1 subclass antibody production as compared to the OVA single administration group
1,"CCCCCCCCCCCCCCCCCCCCCC(=O)NCC(=O)OC [SZ69, N-docosanoyl glycine methyl ester]",significantly increased
2,"CCCCCCCCCCCCCCCCCCCCCC(=O)N[C@@H](CCC(=O)O)C(=O)OC [SZ72, N-docosanoyl-L-glutamic acid 1-methyl ester]",significantly increased
3,"CCCCCCCCCCCCCCCCCCCCCC(=O)N[C@@H](CCCCN)C(=O)OC.O=C(O)C(F)(F)F [SZ73, N^2-docosanoyl-L-lysine methyl ester trifluoroacetic acid salt]",significantly increased
4,"CCCCCCCCCCCCCCCCCCCCCC(=O)N[C@H](C(=O)OC)[C@@H](C)CC [SZ76, N-docosanoyl-L-isoleucine methyl ester]",significantly increased
5,"CCCCCCCCCCCCCCCCCCCCCC(=O)N[C@H](C(=O)OC)C(C)C [SZ77, N-docosanoyl-L-valine methyl ester]",significantly increased

# Same assay, conditions: Example 8
Compound,adjuvant activity (IgG1) compared with Alum,anti-OVA-specific IgG1 subclass antibody production compared with Alum
"CCCCCCCCCCCCCCCC(=O)N[C@@H](CCCNC(=N)N)C(=O)OC.Cl [SZ63, N^2-hexadecanoyl-L-arginine methyl ester hydrochloride]",equivalent to or not less than that of Alum,
"CCCCCCCCCCCCCCCCCC(=O)N[C@@H](CCC(N)=O)C(=O)OC(C)(C)C [SZ64, N^2-octadecanoyl-L-glutamine tert-butyl ester]",equivalent to or not less than that of Alum,
"CCCCCCCCCCCCCCCC(=O)NCC(=O)OC [SZ78, N-hexadecanoyl glycine methyl ester]",equivalent to or not less than that of Alum,equivalent to that of Alum
"CCCCCCCCCCCCCCCC(=O)N[C@@H](CC(C)C)C(=O)OC [SZ79, N-hexadecanoyl-L-leucine methyl ester]",equivalent to or not less than that of Alum,equivalent to that of Alum
"CCCCCCCCCCCCCCCC(=O)N[C@@H](Cc1ccccc1)C(=O)OC [SZ80, N-hexadecanoyl-L-phenylalanine methyl ester]",equivalent to or not less than that of Alum,
"CCCCCCCCCCCCCCCC(=O)N[C@@H](CCCCN)C(=O)OC.O=C(O)C(F)(F)F [SZ81, N^2-hexadecanoyl-L-lysine methyl ester trifluoroacetic acid salt]",equivalent to or not less than that of Alum,equivalent to that of Alum
"CCCCCCCCCCCCCCCC(=O)N[C@@H](CCC(=O)O)C(=O)OC [SZ82, N-hexadecanoyl-L-glutamic acid 1-methyl ester]",equivalent to or not less than that of Alum,

# Same assay, conditions: Example 8; same manner as Example 7
row,Compound,anti-OVA-specific IgG1 subclass antibody production as compared to the OVA single administration group
1,"CCCCCCCCCCCCCCCC(=O)N[C@@H](CCCNC(=N)N)C(=O)OC.Cl [SZ63, N^2-hexadecanoyl-L-arginine methyl ester hydrochloride]",significantly increased
2,"CCCCCCCCCCCCCCCCCC(=O)N[C@@H](CCC(N)=O)C(=O)OC(C)(C)C [SZ64, N^2-octadecanoyl-L-glutamine tert-butyl ester]",significantly increased
3,"CCCCCCCCCCCCCCCC(=O)NCC(=O)OC [SZ78, N-hexadecanoyl glycine methyl ester]",a significant difference was not found
4,"CCCCCCCCCCCCCCCC(=O)N[C@@H](CC(C)C)C(=O)OC [SZ79, N-hexadecanoyl-L-leucine methyl ester]",a significant difference was not found
5,"CCCCCCCCCCCCCCCC(=O)N[C@@H](Cc1ccccc1)C(=O)OC [SZ80, N-hexadecanoyl-L-phenylalanine methyl ester]",significantly increased
6,"CCCCCCCCCCCCCCCC(=O)N[C@@H](CCCCN)C(=O)OC.O=C(O)C(F)(F)F [SZ81, N^2-hexadecanoyl-L-lysine methyl ester trifluoroacetic acid salt]",a significant difference was not found
7,"CCCCCCCCCCCCCCCC(=O)N[C@@H](CCC(=O)O)C(=O)OC [SZ82, N-hexadecanoyl-L-glutamic acid 1-methyl ester]",significantly increased

# Tested on: anti-OVA-specific IgE antibody
# Assay: not given
# Conditions: mouse, in vivo
# Method: The serum sample obtained in Example 1 was measured for an anti-OVA-specific IgE antibody. The measurement method of the anti-OVA-specific IgE antibody in Example 3 and Examples 6, 9 is as follows.
# Measurement Method of anti-OVA-specific IgE Antibody
# DS mouse IgE ELISA (OVA) kit manufactured by DS Pharma Biomedical Co., Ltd. was used. The protocol is briefly shown below.
# The serum sample and a standard reagent for drawing an analytical curve are diluted with a buffer and, after stirring, left standing at room temperature for 10 min. The sample and the standard solution are added to a plate bound with an IgE capture antibody in advance and, after stirring, the mixture is left standing at room temperature for 60 min. The mixture is washed three times with wash, HRP-labeled OVA is added, and the mixture is left standing at room temperature for 30 min. The mixture is washed three times with wash, a substrate solution is added, and the mixture is left standing in dark at room temperature for 30 min. A reaction quenching liquid is added, the mixture is stirred, and the absorbance (OD Value=450 nm) is immediately measured.
# This test was performed in the same manner as in Example 3 except that N^2-hexadecanoyl-L-arginine (SZ61), N-hexadecanoylagmatine (SZ62), N^2-hexadecanoyl-L-arginine methyl ester hydrochloride (SZ63), N^2-octadecanoyl-L-glutamine tert-butyl ester (SZ64), and N^2-octadecanoyl-L-glutamine (SZ65) were used.
# This test was performed in the same manner as in Example 6 except that N-hexadecanoylagmatine (SZ62), N^2-octadecanoyl-L-glutamine tert-butyl ester (SZ64), N-docosanoyl-L-leucine methyl ester (SZ70), and N-docosanoyl-L-phenylalanine methyl ester (SZ71) were used and a positive control adjuvant Addavax™ (InvivoGen) administration group was formed.
# The allergy inducing activity test was performed in the same manner as in Example 3 except that Addavax™, N-(2-octadecyleicosanoyl)-L-leucine methyl ester (SZ86), N-hexadecanoyl-L-leucinamide (SZ90), N^2-hexadecanoyl-N^1,N^1-diethyl-L-leucinamide (SZ92), N^2-hexadecanoyl-L-arginine hexyl ester hydrochloride (SZ99) and N^2-docosanoyl-N^1,N^1-diethyl-L-glutamic acid 1-amide (SZ106) were used.
# The allergy inducing activity test was performed in the same manner as in Example 3 except that Addavax™, N-(2-octadecyleicosanoyl)-L-leucine methyl ester (SZ86), N-hexadecanoyl-L-leucinamide (SZ90), N^2-hexadecanoyl-N^1,N^1-diethyl-L-leucinamide (SZ92), N-hexadecanoyl-L-leucine hexyl ester (SZ97), N^2-docosanoyl-N^1,N^1-diethyl-L-glutamic acid 1-amide (SZ106) and N-docosanoylagmatine hydrochloride (SZ108) were used.
# 8-Week-old female BALB/c mice were divided into groups (N=6), and each group was primarily immunized by dorsal-subcutaneous administration of (1) ovalbumin (OVA) (5 μg) dissolved in saline as an antigen (OVA single administration group), (2) OVA (10 μg) and aluminum hydroxide salt dissolved in saline (Alum administration group), (3) OVA 10 μg and Addavax™ (mixed with saline at 1:1) dissolved in saline (Addavax™ administration group), (4) OVA 10 μg and CpG 5 μg dissolved in saline (CpG administration group), (5) OVA 10 μg and MPL 5 μg dissolved in saline (MPL administration group), (6) OVA (5 μg) and SZ62 (0.256 μmol) dissolved or dispersed in 5% αCD-added saline (SZ62 administration group), (7) OVA (5 μg), SZ62 (0.256 μmol) and CpG 5 μg dissolved or dispersed in 5% αCD-added saline (SZ62+CpG administration group), (8) OVA 10 μg, Addavax™ (mixed with saline at 1:1) and CpG 5 μg dissolved in saline (Addavax™+CpG administration group), (9) OVA (5 μg), SZ62 (0.256 μmol) and MPL 5 μg dissolved or dispersed in 5% αCD-added saline (SZ62+MPL administration group), (10) OVA (10 μg), aluminum hydroxide salt (Alum) and MPL 5 μg dissolved in saline (Alum+MPL administration group), each per mouse. One week later, the secondary immunization was carried out by dorsal-subcutaneous administration of solutions or dispersions similar to those of the above-mentioned (1) to (10) again.
Compound,allergy inducing activity as compared to aluminum hydroxide gel adjuvant,anti-OVA-specific IgE antibody production as compared to the OVA single administration group,allergy inducing activity as compared to aluminum hydroxide gel adjuvant and Addavax
"CCCCCCCCCCCCCCCC(=O)N[C@@H](CCCNC(=N)N)C(=O)O [SZ61, N^2-hexadecanoyl-L-arginine]",lower allergy inducing activity,a significant increase in the anti-OVA-specific IgE antibody production was not observed,
"CCCCCCCCCCCCCCCC(=O)N[C@@H](CCCNC(=N)N)C(=O)OC.Cl [SZ63, N^2-hexadecanoyl-L-arginine methyl ester hydrochloride]",lower allergy inducing activity,a significant increase in the anti-OVA-specific IgE antibody production was not observed,
"CCCCCCCCCCCCCCCCCC(=O)N[C@@H](CCC(N)=O)C(=O)OC(C)(C)C [SZ64, N^2-octadecanoyl-L-glutamine tert-butyl ester]",lower allergy inducing activity,a significant increase in the anti-OVA-specific IgE antibody production was not observed,lower allergy inducing activity
Alum [reference compound],,significantly increased,
